Assay results reported in the OPERA property sets (Mansouri et al. 2018).

logP	Compound
0.14	COc1ccc(-c2cc(=O)c3c(O)cc(O[C@@H]4O[C@H](CO[C@@H]5O[C@@H](C)[C@H](O)[C@@H](O)[C@H]5O)[C@@H](O)[C@H](O)[C@H]4O)cc3o2)cc1O
0.95	O=C1c2c(O)cc(O)cc2O[C@H](c2ccc(O)c(O)c2)[C@H]1O
2.81	O=C1CC(c2ccc(O)c(O)c2)Oc2cccc(O)c21 (configuration not stated)
0.51	Oc1cc(O)c2c(c1)O[C@H](c1ccc(O)c(O)c1)[C@@H](O)C2
2.61	O=C1CC(c2cccc(O)c2)Oc2cc(O)cc(O)c21 (configuration not stated)
-0.44	C[C@@H]1O[C@@H](O[C@H]2[C@H](Oc3cc(O)c4c(c3)O[C@H](c3ccc(O)cc3)CC4=O)O[C@H](CO)[C@@H](O)[C@@H]2O)[C@H](O)[C@H](O)[C@H]1O
1.94	O=C1C[C@@H](c2ccc(O)c(O)c2)Oc2cc(O)ccc21
2.6	COc1ccc([C@@H]2CC(=O)c3c(O)cc(O)cc3O2)cc1O
4.3	O=c1cc(-c2ccccc2)oc2cccc(O)c12
3.02	O=c1cc(-c2ccc(O)cc2)oc2cc(O)cc(O)c12
3.52	O=c1cc(-c2ccccc2)oc2cc(O)cc(O)c12
2.02	O=C1CC(c2ccc(O)c(O)c2)Oc2cc(O)cc(O)c21 (configuration not stated)
3.1	COc1ccc(-c2cc(=O)c3c(O)cc(O)cc3o2)cc1O
0.87	O=C1c2ccc(O)cc2OC(c2ccc(O)c(O)c2)C1O (configuration not stated)
3.31	O=c1cc(-c2ccc(O)c(O)c2)oc2cccc(O)c12

Compound	logP
O=c1cc(-c2ccc(O)c(O)c2)oc2cc(O)cc(O)c12	2.53
O=C1C[C@@H](c2ccc(O)cc2)Oc2cc(O)cc(O)c21	2.52
